The values below are quoted from earlier work in patent US4866035A, “Dipeptidyl saccharides as host resistance enhancers in AIDS-immuno-compromised hosts and methods of use” (Merck & Co., Inc., priority 1987, dated 1989).

Like-named read-outs stand apart in the source and are kept apart here.

In one data set the test system is AIDS or ARC patients. The note with it: ARC or AIDS-related conditions.
For data set [1] the following is noted: in vivo.
In data set [2] the target is HIV reverse transcriptase (Human immunodeficiency virus type 1 group M subtype B, UniProt P04585).
The test system of data set [3] is human immunodeficiency virus (HIV).
For another data set, the system named is reverse transcriptase. Conditions: in vitro.
Where [4] appears, read: clinical trials or use in patients.

In the case of `Cc1cn([C@H]2C[C@H](N=[N+]=[N-])[C@@H](CO)O2)c(=O)[nH]c1=O` [Azidothymidine, 3'-azido 3'-deoxythymidine], in the data set on AIDS or ARC patients, the “clinical effect in patients” value was “promise in prolonging lives”. Further, in data set [1], the “half life in the body” value is “relatively short half life” and the “penetration of central nervous system” value was “effectively penetrates central nervous system”. For the same molecule, the oral absorption entry in data set [1] (po) is “Well absorbed orally”.

As for `O=C(O)P(=O)(O)O` [Foscarnet, trioodium phosphonoformate], the “inhibition of HIV reverse transcriptase” value in data set [2] is listed as “Inhibits HIV reverse transcriptase activity in vitro”. For the same molecule, the “adverse effects, tolerability” value in the data set on patients (human, in vivo) was “serious side effects”.

For `CO[C@H]1/C=C/O[C@@]2(C)Oc3c(C)c(O)c4c(c3C2=O)C2=NC3(CCN(CC(C)C)CC3)NC2=C(NC(=O)/C(C)=C\C=C\[C@H](C)[C@H](O)[C@@H](C)[C@@H](O)[C@@H](C)[C@H](OC(C)=O)[C@@H]1C)C4=O` [Ansamycin], in the data set with AIDS or ARC patients, the “clinical effect in patients” value is recorded as “some efficacy”.

With `CC(C)(S)[C@@H](N)C(=O)O` [D-Penicillamine, 3-mercapto D-valine], the “clinical effect in patients” value in the data set with AIDS or ARC patients is on record as “suppressed the virus”. The “adverse effects, tolerability” value in the data set on patients (human, in vivo) is “temporarily depressed T cell levels”.

On to α-Interferon, for which the “clinical effect in patients” value in the data set with AIDS or ARC patients was “induced tumor regression in some AIDS-related Kaposi's sarcoma cases”. Also, in data set [3], the “effect on HIV growth or infectivity” value is “Checks the growth of HIV in vitro”.

In the case of `NC(=O)c1ncn([C@@H]2O[C@H](CO)[C@@H](O)[C@H]2O)n1` [Ribavirin, 1-β-D-ribofuranosyl-1,2,4-triazole 3-carboxamide], in the data set on AIDS or ARC patients, the “clinical effect in patients” value was “inhibited viral replication and improved immune function”. For the same molecule, the “adverse effects, tolerability” value in the data set with patients (setting [4]) is reported as “well tolerated”.

Turning to `CC(C)(N1CC1C#N)N1CC1C(N)=O` (stereo not drawn) [Azimexon], the “clinical effect in patients” value with AIDS or ARC patients was “improvements in symptoms and immune function in patients with ARC but not AIDS”. For the same molecule, in the data set with patients (setting [4]), the “adverse effects, tolerability” value is given as “mild hemolysis”.

On to “ammonium-21-tungsto-9-antimoniate [HPA-23]”, for which the “clinical effect in patients” value with AIDS or ARC patients is listed as “no therapeutic benefit has been documented”. For the same molecule, in data set [3], the “effect on HIV growth or infectivity” value was “some tendency to check the growth of HIV”. Moreover, the “inhibition of reverse transcriptase in several retroviruses” value in the data set on reverse transcriptase was “Inhibits reverse transcriptase”.

In the case of `Cc1ccc(C(=O)Nc2ccc(S(=O)(=O)O)c3cc(S(=O)(=O)O)cc(S(=O)(=O)O)c23)cc1NC(=O)c1cccc(NC(=O)Nc2cccc(C(=O)Nc3cc(C(=O)Nc4ccc(S(=O)(=O)O)c5cc(S(=O)(=O)O)cc(S(=O)(=O)O)c45)ccc3C)c2)c1` [Suramin], the “inhibition of HIV reverse transcriptase” value in data set [2] is listed as “Potent inhibitor of HIV reverse transcriptase”. Also, the “adverse effects, tolerability” value with patients (human, in vivo) was “serious side effects”.

Turning to `CC(=O)Nc1ccc(C(=O)O)cc1.CC(=O)Nc1ccc(C(=O)O)cc1.CC(=O)Nc1ccc(C(=O)O)cc1.CC(O)CN(C)C.CC(O)CN(C)C.CC(O)CN(C)C.O=c1[nH]cnc2c1ncn2[C@@H]1O[C@H](CO)[C@@H](O)[C@H]1O` [Inosine pranobex], the “clinical effect in patients” value in the data set with AIDS or ARC patients is “improve immune function in ARC patients”.
